According to patent publication US20230085307A1, “PYRIDAZINONE COMPOUND AND HERBICIDE” (NISSAN CHEMICAL CORPORATION, priority 2019, published 2023):

Tested on: velvetleaf
Experiment: Test Example 4: herbicidal effect by soil treatment (Table 19, symbol M)
Assay type: in vivo, velvetleaf (Abutilon theophrasti)
Details: amount of applied herbicide 320 g/ha
Outline: (§1)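 Emulsion of test compound, water-diluted to predetermined amount, sprayed on soil after sowing (seed depth ~1.5 cm, sterilized diluvial soil). Greenhouse, 25–30° C. Effect graded at three weeks post-spray.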

Row | SMILES | M: velvetleaf, herbicidal effect grade
1 | CCCC(=O)Oc1c(C)nn(C)c(=O)c1-c1c(-c2ccc(OC)cc2)sc2cc(OC)ccc12 [3-069] | 0 (Herbicidal rate of 5% or less (almost no effect))

Tested on: wild oat
Experiment: Test Example 4: herbicidal effect by soil treatment (Table 19, symbol I)
Assay type: in vivo, wild oat (Avena fatua)
Details: amount of applied herbicide 320 g/ha
Outline: as §1

Row | SMILES | I: wild oat, herbicidal effect grade
2 | CCCC(=O)Oc1c(C)nn(C)c(=O)c1-c1c(-c2ccc(OC)cc2)sc2cc(OC)ccc12 [3-069] | 0 (Herbicidal rate of 5% or less (almost no effect))

Tested on: barnyard grass
Experiment: Test Example 5: herbicidal effect by foliage application, plastic box (Table 20, symbol H)
Assay type: in vivo, barnyard grass (Echinochloa crus-galli)
Details: foliage application, 320 g/ha, three weeks after application
Outline: (§2)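 Post-emergence foliar test in sterilized diluvial soil. Compound applied as water-diluted emulsion at a predetermined rate to 14-day-old plants; evaluation at three weeks.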

Row | SMILES | H: barnyard grass, herbicidal effect grade
3 | CCCC(=O)Oc1c(C)nn(C)c(=O)c1-c1c(-c2ccc(OC)cc2)sc2cc(OC)ccc12 [3-069] | 2 (Herbicidal rate of 20% or more and less than 40%)

Tested on: Italian ryegrass
Experiment: Test Example 5: herbicidal effect by foliage application, plastic box (Table 20, symbol K)
Assay type: in vivo, Italian ryegrass (Lolium multiflorum)
Details: foliage application, 320 g/ha, three weeks after application
Outline: as §2

Row | SMILES | K: Italian ryegrass, herbicidal effect grade
4 | CCCC(=O)Oc1c(C)nn(C)c(=O)c1-c1c(-c2ccc(OC)cc2)sc2cc(OC)ccc12 [3-069] | 3 (Herbicidal rate of 40% or more and less than 70%)

Tested on: lambsquarters
Experiment: Test Example 5: herbicidal effect by foliage application, plastic box (Table 20, symbol O)
Assay type: in vivo, lambsquarters (Chenopodium album)
Details: foliage application, 320 g/ha, three weeks after application
Outline: as §2

Row | SMILES | O: lambsquarters, herbicidal effect grade
5 | CCCC(=O)Oc1c(C)nn(C)c(=O)c1-c1c(-c2ccc(OC)cc2)sc2cc(OC)ccc12 [3-069] | 5 (Herbicidal rate of 90% or more (almost completely withered))

Tested on: lambsquarters
Experiment: Test Example 4: herbicidal effect by soil treatment (Table 19, symbol O)
Assay type: in vivo, lambsquarters (Chenopodium album)
Details: amount of applied herbicide 320 g/ha
Outline: as §1

Row | SMILES | O: lambsquarters, herbicidal effect grade
6 | CCCC(=O)Oc1c(C)nn(C)c(=O)c1-c1c(-c2ccc(OC)cc2)sc2cc(OC)ccc12 [3-069] | 0 (Herbicidal rate of 5% or less (almost no effect))

Tested on: late watergrass
Experiment: Test Example 2: herbicidal activity, application during weed generation under submerged conditions (Table 17, symbol A)
Assay type: in vivo, late watergrass (Echinochloa oryzicola)
Details: AAH 320 g/ha; application during weed generation, submerged conditions
Outline: (§3)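 Wagner pot, alluvial soil, 4 cm flood; mixed sowing of all species; greenhouse 25° C.–30° C. Emulsifiable formulation, water-diluted to predetermined dose, applied to paddy water at 1–2 leaf stage. Effect rated at 3 wk using the earlier test's scoring criteria.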

Row | SMILES | herbicidal effect rating, A: late watergrass
7 | CCCC(=O)Oc1c(C)nn(C)c(=O)c1-c1c(-c2ccc(OC)cc2)sc2cc(OC)ccc12 [3-069] | 0 (Herbicidal rate of 5% or less (almost no effect))

Tested on: chickweed
Experiment: Test Example 5: herbicidal effect by foliage application, plastic box (Table 20, symbol P)
Assay type: in vivo, common chickweed (Stellaria media)
Details: foliage application, 320 g/ha, three weeks after application
Outline: as §2

Row | SMILES | P: chickweed, herbicidal effect grade
8 | CCCC(=O)Oc1c(C)nn(C)c(=O)c1-c1c(-c2ccc(OC)cc2)sc2cc(OC)ccc12 [3-069] | 5 (Herbicidal rate of 90% or more (almost completely withered))

Tested on: rice flat sedge
Experiment: Test Example 3: herbicidal effect by foliage application, Wagner pot (Table 18, symbol E)
Assay type: in vivo, rice flat sedge (Cyperus iria)
Details: 320 g/ha
Outline: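 Plants were sown in alluvial soil held under 0.1–0.5 cm standing water and grown 14 days in a greenhouse at 25–30 °C. An emulsifiable formulation, water-diluted to the set dose, was then sprayed onto the foliage, and effects were scored three weeks later using previously defined criteria.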

Row | SMILES | herbicidal effect on rice flat sedge (E)
9 | CCCC(=O)Oc1c(C)nn(C)c(=O)c1-c1c(-c2ccc(OC)cc2)sc2cc(OC)ccc12 [3-069] | 3 (Herbicidal rate of 40% or more and less than 70%)

Tested on: oval-leafed pondweed
Experiment: Test Example 1: herbicidal activity, application before weed generation under submerged conditions (Table 16, symbol C)
Assay type: in vivo, oval-leafed pondweed (Monochoria vaginalis)
Details: amount of applied herbicide 320 g/ha
Outline: (§4)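 Alluvial soil was flooded to 4 cm depth, weed seeds were sown mixed and 2.5-leaf rice seedlings were transplanted. On sowing day, the compound's emulsion, diluted in water to a set dose, was applied to the water surface. Plants grew at 25–30 °C and were scored 0–5 after three weeks.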

Row | SMILES | Herbicidal effect, C: oval-leafed pondweed
10 | CCCC(=O)Oc1c(C)nn(C)c(=O)c1-c1c(-c2ccc(OC)cc2)sc2cc(OC)ccc12 [3-069] | 2 (Herbicidal rate of 20% or more and less than 40%)

Tested on: windgrass
Experiment: Test Example 5: herbicidal effect by foliage application, plastic box (Table 20, symbol L)
Assay type: in vivo, windgrass (Apera spica-venti)
Details: foliage application, 320 g/ha, three weeks after application
Outline: as §2

Row | SMILES | L: windgrass, herbicidal effect grade
11 | CCCC(=O)Oc1c(C)nn(C)c(=O)c1-c1c(-c2ccc(OC)cc2)sc2cc(OC)ccc12 [3-069] | 3 (Herbicidal rate of 40% or more and less than 70%)

Tested on: velvetleaf
Experiment: Test Example 5: herbicidal effect by foliage application, plastic box (Table 20, symbol M)
Assay type: in vivo, velvetleaf (Abutilon theophrasti)
Details: foliage application, 320 g/ha, three weeks after application
Outline: as §2

Row | SMILES | M: velvetleaf, herbicidal effect grade
12 | CCCC(=O)Oc1c(C)nn(C)c(=O)c1-c1c(-c2ccc(OC)cc2)sc2cc(OC)ccc12 [3-069] | 5 (Herbicidal rate of 90% or more (almost completely withered))

Tested on: wild oat
Experiment: Test Example 5: herbicidal effect by foliage application, plastic box (Table 20, symbol I)
Assay type: in vivo, wild oat (Avena fatua)
Details: foliage application, 320 g/ha, three weeks after application
Outline: as §2

Row | SMILES | I: wild oat, herbicidal effect grade
13 | CCCC(=O)Oc1c(C)nn(C)c(=O)c1-c1c(-c2ccc(OC)cc2)sc2cc(OC)ccc12 [3-069] | 0 (Herbicidal rate of 5% or less (almost no effect))

Tested on: Japanese bulrush
Experiment: Test Example 2: herbicidal activity, application during weed generation under submerged conditions (Table 17, symbol B)
Assay type: in vivo, Japanese bulrush (Schoenoplectus juncoides)
Details: AAH 320 g/ha; application during weed generation, submerged conditions
Outline: as §3

Row | SMILES | herbicidal effect rating, B: Japanese bulrush
14 | CCCC(=O)Oc1c(C)nn(C)c(=O)c1-c1c(-c2ccc(OC)cc2)sc2cc(OC)ccc12 [3-069] | 3 (Herbicidal rate of 40% or more and less than 70%)

Tested on: Italian ryegrass
Experiment: Test Example 4: herbicidal effect by soil treatment (Table 19, symbol K)
Assay type: in vivo, Italian ryegrass (Lolium multiflorum)
Details: amount of applied herbicide 320 g/ha
Outline: as §1

Row | SMILES | K: Italian ryegrass, herbicidal effect grade
15 | CCCC(=O)Oc1c(C)nn(C)c(=O)c1-c1c(-c2ccc(OC)cc2)sc2cc(OC)ccc12 [3-069] | 0 (Herbicidal rate of 5% or less (almost no effect))

Tested on: persian speedwell
Experiment: Test Example 4: herbicidal effect by soil treatment (Table 19, symbol R)
Assay type: in vivo, Persian speedwell (Veronica persica)
Details: amount of applied herbicide 320 g/ha
Outline: as §1

Row | SMILES | R: persian speedwell, herbicidal effect grade
16 | CCCC(=O)Oc1c(C)nn(C)c(=O)c1-c1c(-c2ccc(OC)cc2)sc2cc(OC)ccc12 [3-069] | 4 (Herbicidal rate of 70% or more and less than 90%)

Tested on: Japanese bulrush
Experiment: Test Example 1: herbicidal activity, application before weed generation under submerged conditions (Table 16, symbol B)
Assay type: in vivo, Japanese bulrush (Schoenoplectus juncoides)
Details: amount of applied herbicide 320 g/ha
Outline: as §4

Row | SMILES | Herbicidal effect, B: Japanese bulrush
17 | CCCC(=O)Oc1c(C)nn(C)c(=O)c1-c1c(-c2ccc(OC)cc2)sc2cc(OC)ccc12 [3-069] | 3 (Herbicidal rate of 40% or more and less than 70%)
